Patent US9272038B2, “Wound care formulation” (Innovation Ulster Limited, priority 2007, dated 2016)
Where a name gives a salt, the structure may show the parent alone.

Key:
Format in all cases: physicochemical
[1] = pH measurement of PVA-borate hydrogels (spear-tip electrode); details: 10% w/w PVA and 2.5% w/w borax hydrogel, n=4
Method: PVA-borate hydrogels (10% w/w PVA and 2.5% w/w borax) were prepared by combining equal volumes of separate stock solutions (20% w/w PVA and 5% w/w borax) prepared in de-ionised water. A homogenous gel was formed upon heating the mixture to 80° C. for approximately two hours, with periodic stirring. Gels were stored for 48 hours at room temperature to allow complete gelation prior to evaluation. Excipients, such as lidocaine HCL and D-mannitol, were added to the sodium tetraborate solution prior to addition to the PVA solution. The pH of gel formulations were recorded using a Sensorex® spear-tip electrode ([…], Sensys Ltd, Stevenage), which is designed to penetrate and measure the pH of semi-solid systems. Measurements of pH in borax solutions (5% w/v), following successive additions of D-mannitol (5.0×10^-3 mole), were recorded using the same electrode apparatus. Additionally, the effect of the polyols on the concentration of free borate ions within the hydrogel was estimated using changes in the pH of the gel after addition of a defined polyol. Standard hydrogels of 10% w/w PVA and 2.5% borax were produced containing each polyol at a concentration of 0.1 Molar. The pH of each gel was measured upon equilibration, with each measurement performed for four samples (n=4). Similarly, the changes in gel hardness arising from variations in free borate induced by polyol addition were determined using texture profile analysis, as described above. As before, four replicate measurements were made in each case at ambient temperature (n=4).

[2] = Comparison of polyol affinity for borate ions by direct titrimetry; details: polyol added to 100.0 ml of 5% w/v Borax solution; calculated from pH with Equation 3
Method: The following polyols were used in this investigation; maltitol, dulcitol, D-mannitol, D-sorbitol, xylitol, meso-erythritol, 1,2-propanediol, glycerol. Additionally, the affect of propan-2-ol was also investigated. The affinity of each polyol for borate was estimated using direct titrimetry and by analysis of gel characteristics. In the former method, incremental additions (1.0 ml) of a 0.5 M solution of polyol was added to 100.0 ml of 5% w/v Borax solution and the pH recorded. […] 3; 10^(pH-pKa)[H3BO3]0═[B(OH)4^−]f (3) where, [H3BO3]0 is the concentration of boric acid, [B(OH)4^−]f is the concentration of free borate ions and pKa is the pKa of boric acid (derived from the initial pH of the 5% w/v borax solution). […] These assumptions are consistent with work of other researchers^27,28.

[3] = Texture profile analysis (hardness) of PVA-borate hydrogels; details: for Hardness (N): 10% w/w PVA and 2.5% w/w borax hydrogel with 0.1 M polyol, n=4; for effect on hardness compared to the hydrogel containing no polyol: hydrogel loaded with 0.1 Molar polyol
Method: Evaluation of the mechanical properties of PVA-borate hydrogels was performed using a TA-XT2 Texture Analyzer (Stable Micro Systems, […], UK) in texture profile analysis (TPA) mode. Formulations were placed in poly(propylene) containers (44 mm diameter×55 mm depth) (Sarstedt©, Wexford, Republic of Ireland) with any air bubbles in the gels removed upon standing at ambient temperature (>6.0 h) prior to investigation. The tubular probe (10.0 mm in diameter and 150.0 mm in length) was compressed twice into each sample to a depth of 15.0 mm at a rate of 10.0 mm s^-1, with a 15.0 s delay between compressions. Four replicate measurements were made in each case at ambient temperature. Hardness and compressibility, which have previously been used to define the mechanical properties of hydrogels were derived from the force-time plots produced by the TPA analysis^30. Those skilled in the art of TPA, will be familiar with production of said force-time plots and derivation of hardness and compressibility data from aforementioned data. Hardness, the force required to achieve a given deformation, was determined by the force maximum of the first positive curve of the force-time plot^30. Compressibility, the work required to deform the product during the first compression of the probe was determined by the area under the first positive curve of the force-time plot^30. Additionally, the effect of the polyols on the concentration of free borate ions within the hydrogel was estimated using changes in the pH of the gel after addition of a defined polyol. Standard hydrogels of 10% w/w PVA and 2.5% borax were produced containing each polyol at a concentration of 0.1 Molar. The pH of each gel was measured upon equilibration, with each measurement performed for four samples (n=4). Similarly, the changes in gel hardness arising from variations in free borate induced by polyol addition were determined using texture profile analysis, as described above. As before, four replicate measurements were made in each case at ambient temperature (n=4).

[4] = pHp of lidocaine hydrochloride within PVA-Borate hydrogels, derived experimentally
Method: […]. The determination of the pHp in the aqueous environment is determined using the equation (1), whilst the determination of the pHp within the gel environment is derived experimentally. […].

What does the source list for OCC(O)CO [Glycerol]?
pH of hydrogel with 0.1 M polyol [1]: 8.17 +/− 0.022; % reduction in free borate/0.0005 moles [2]: 3.36 ± 1.34%

Which “pH of hydrogel with 0.1 M polyol” value [1] does the source give for OC[C@@H](O)[C@@H](O)[C@H](O)[C@@H](O)CO [D-sorbitol] here?
Its value is 7.79 ± 0.02.

And the “Hardness (N)” value [3]?
Its value is 4.37 ± 0.31 N.

And the “% reduction in free borate/0.0005 moles” value [2]?
Its value is 6.87 ± 1.25%.

With CC(O)CO (centres unmarked) [1,2-propandiol] as the molecule, how does the “pH of hydrogel with 0.1 M polyol” value [1] read?
The value was 8.39 ± 0.02.

And the “Hardness (N)” value [3]?
The value was 14.10 ± 0.5 N.

What about the “effect on hardness compared to the hydrogel containing no polyol” value [3] of the same molecule?
The value was “no affect on the hardness of the hydrogel”.

What about the “% reduction in free borate/0.0005 moles” value [2] of the same molecule?
The value was 2.08 ± 0.78%.

For Malititol, which “pH of hydrogel with 0.1 M polyol” value [1] is on record?
The value was 7.63 ± 0.019.

What about the “Hardness (N)” value [3] of the same molecule?
The value was 2.79 ± 0.14 N.

And the “% reduction in free borate/0.0005 moles” value [2]?
Its value is 7.25 ± 1.59%.

With OC[C@@H](O)[C@@H](O)CO [Meso-erythritol] as the molecule, how does the “pH of hydrogel with 0.1 M polyol” value [1] read?
Its value is 8.10 ± 0.01.

And the “Hardness (N)” value [3]?
Its value is 9.01 ± 0.45 N.

And the “% reduction in free borate/0.0005 moles” value [2]?
Its value is 4.97 ± 1.17%.

Which results are given for CCN(CC)CC(=O)Nc1c(C)cccc1C [Lidocaine HCl, lidocaine hydrochloride]?
pHp (Gel) ([4]; 1% w/v lidocaine HCl in PVA-Borate hydrogel): ≧8.15; pHp (Gel) ([4]; 2% w/v lidocaine HCl in PVA-Borate hydrogel): ≧7.75; pHp (Gel) ([4]; 3% w/v lidocaine HCl in PVA-Borate hydrogel): ≧7.45; pHp (Gel) ([4]; 4% w/v lidocaine HCl in PVA-Borate hydrogel, hydrochloride): ≧7.26; pHp (Gel) ([4]; 4% w/v lidocaine HCl in PVA-Borate hydrogel, listed as lidocaine hydrochloride monohydrate, hydrochloride): > 7.26

What does the source list for OC[C@@H](O)[C@H](O)[C@H](O)[C@@H](O)CO [Dulitol]?
pH of hydrogel with 0.1 M polyol [1]: 7.67 ± 0.015; Hardness (N) [3]: 3.87 ± 0.38 N; % reduction in free borate/0.0005 moles [2]: 7.46 ± 1.41%

For OC[C@@H](O)[C@@H](O)[C@H](O)[C@H](O)CO [D-mannitol], which “pH of hydrogel with 0.1 M polyol” value [1] is on record?
Its value is 7.74 ± 0.023.

And the “Hardness (N)” value [3]?
The value was 4.07 ± 0.25 N.

And the “% reduction in free borate/0.0005 moles” value [2]?
Its value is 7.47 ± 1.10%.

With CC(C)O [Propan-2-ol] as the molecule, how does the “pH of hydrogel with 0.1 M polyol” value [1] read?
Its value is 8.393 +/− 0.012.

And the “effect on hardness compared to the hydrogel containing no polyol” value [3]?
The value was “no affect on the hardness of the hydrogel”.

What about the “% reduction in free borate/0.0005 moles” value [2] of the same molecule?
The value was 0.51 ± 1.09%.

For OC[C@@H](O)[C@H](O)[C@@H](O)CO [Xylitol], which “pH of hydrogel with 0.1 M polyol” value [1] is on record?
Its value is 7.95 ± 0.038.

What about the “Hardness (N)” value [3] of the same molecule?
Its value is 5.18 ± 0.31 N.

And the “% reduction in free borate/0.0005 moles” value [2]?
The value was 4.97 ± 1.21%.
